Assay results from patent US20250296971A1, “GASTRIC INHIBITORY PEPTIDE RECEPTOR LIGANDS” (priority 2021, published 2025).
*1 amine or outer side, *2 acyl side, *3 side chain or, on linkers, in order; H or OH if unused. Where a SMILES comes first, the peptide text is derived from it. Bridges are numbered along the chain shown (N, C = ends). [ ]: non-standard residue; d: D form. The star is where a group is joined. X5 = NC(=O)[C@H](CCCCNC(=O)CN1CCN(CC(=O)O)CCN(CC(=O)O)CCN(CC(=O)O)CC1)NC(=O)CCC(=O)NCCCOCCOCCOCCCN*; X19 = O=C(O)CN1CCN(CC(=O)O)CCN(CC(=O)N2CCN(Cc3cc(C[*:1])cc(C[*:2])c3)CC2)CCN(CC(=O)O)CC1; X11 = O=C(CN1CCN2CCN3CCN(CC1)CC(=O)[O][In]([O]C(=O)C2)[O]C(=O)C3)NCCCOCCOCCOCCCN*; X3 = O=C(O)CN1CCN(CC(=O)O)CCN(CC(=O)NCCCOCCOCCOCCCN*)CCN(CC(=O)O)CC1; NH(1-deoxy-D-glucityl) = OC[C@@H](O)[C@@H](O)[C@H](O)[C@@H](O)CN*; X26 = O=C(O)CN1CCN2CCN(CCN(CC(=O)*)CC1)CC(=O)[O][Zn][O]C(=O)C2; Trp(5-Cl) = N[C@@H](Cc1c[nH]c2ccc(Cl)cc12)C(=O)O; Trp(6-Cl) = N[C@@H](Cc1c[nH]c2cc(Cl)ccc12)C(=O)O; Trp(6-F) = N[C@@H](Cc1c[nH]c2cc(F)ccc12)C(=O)O; 1Nal = N[C@@H](Cc1cccc2ccccc12)C(=O)O; mXylylene = c1cc(C[*:1])cc(C[*:2])c1; Glutaryl = O=C(CCCC(=O)[*:2])[*:1]; X6 = c1cc(CSCCN[*:2])nc(C[*:1])c1; X7 = c1cc(CSCCN[*:2])cc(C[*:1])c1; Hyp = O=C(O)[C@@H]1C[C@@H](O)CN1; Suc = O=C(CCC(=O)[*:2])[*:1]; αMeS = C[C@](N)(CO)C(=O)O; Api = NC1(C(=O)O)CCNCC1; Thp = NC1(C(=O)O)CCOCC1; Deg = CCC(N)(CC)C(=O)O; Aib = CC(C)(N)C(=O)O; Sar = CNCC(=O)O

Molecular target: T1, GIPR (CHO-K1-hGIPR cells) (Homo sapiens, UniProt P48546)
T1 construct: host or cells: CHO-K1
T1 sequence (P48546 22-466): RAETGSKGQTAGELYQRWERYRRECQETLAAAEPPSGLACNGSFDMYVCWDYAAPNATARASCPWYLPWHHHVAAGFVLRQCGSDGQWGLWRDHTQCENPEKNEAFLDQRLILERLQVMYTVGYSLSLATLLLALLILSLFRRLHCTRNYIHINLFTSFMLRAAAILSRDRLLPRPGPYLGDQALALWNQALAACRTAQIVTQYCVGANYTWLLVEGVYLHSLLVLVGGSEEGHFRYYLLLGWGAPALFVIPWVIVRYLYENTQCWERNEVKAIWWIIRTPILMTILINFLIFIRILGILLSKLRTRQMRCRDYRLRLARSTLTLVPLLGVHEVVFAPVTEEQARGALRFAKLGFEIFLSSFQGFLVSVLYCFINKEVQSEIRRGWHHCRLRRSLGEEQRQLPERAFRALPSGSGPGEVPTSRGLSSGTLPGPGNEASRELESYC
Experiment: FACS binding assay
Details: competition with 20 nM GIP-057, 4° C., 1 hour, read-out: pIC50 Category (converted)
How it was run: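 CHO-K1 cells stably expressing human GIPR were detached with Accutase, suspended at 500.000 cells per mL in PBS with 1% FCS, and washed ice-cold. Bound peptide was detected with 1 μg/mL APC-streptavidin for 30 min on ice.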

| SMILES | IC50 [nM] |
| --- | --- |
| CC[C@H](C)[C@@H]1NC(=O)[C@H](CC(C)C)NC(=O)C(CC)(CC)NC(=O)[C@@H](NC(=O)[C@@H](CC(C)C)NC(=O)[C@H](CCC(=O)O)NC(=O)[C@@H]2CCCN2C(=O)[C@H](Cc2cccc3ccccc23)NC(=O)[C@H](Cc2c[nH]c3ccccc23)NC(=O)[C@H](CC(=O)O)NC(C)=O)CSCc2cccc(c2)CSC[C@@H](C(=O)NCCCOCCOCCOCCCNC(=O)CCC(=O)N[C@@H](CCCCNC(=O)CN2CCN(CC(=O)O)CCN(CC(=O)O)CCN(CC(=O)O)CC2)C(N)=O)NC1=O [GIP-139, Ac-Asp-Trp-1Ni-Pro-Glu-leu-[Cys(3MeBn)-Deg-Leu-Ile-Cys]-Ttds-Lys(DOTA)-NH2] (Ac-DW[1Nal]PE[dL]C[Deg]LIC-X5; linker 7-11 via mXylylene) | 10 to 79.4 |
| CC[C@H](C)[C@@H]1NC(=O)[C@H](CC(C)C)NC(=O)C(C)(C)NC(=O)[C@@H](NC(=O)[C@@H](CC(C)C)NC(=O)[C@H](CCC(=O)O)NC(=O)[C@@H]2CCCN2C(=O)[C@H](Cc2c[nH]c3cc(F)ccc23)NC(=O)[C@H](Cc2c[nH]c3ccccc23)NC(=O)[C@H](CC(=O)O)NC(C)=O)CSCc2cccc(c2)CSC[C@@H](C(=O)NCCCOCCOCCOCCCNC(=O)CCC(=O)N[C@@H](CCCCNC(=O)CN2CCN(CC(=O)O)CCN(CC(=O)O)CCN(CC(=O)O)CC2)C(N)=O)NC1=O [GIP-140, Ac-Asp-Trp-6Fw-Pro-Glu-leu-[Cys(3MeBn)-Aib-Leu-Ile-Cys]-Ttds-Lys(DOTA)-NH2] (Ac-DW[Trp(6-F)]PE[dL]C[Aib]LIC-X5; linker 7-11 via mXylylene) | 10 to 79.4 |
| CC[C@H](C)[C@@H]1NC(=O)[C@H](CC(C)C)NC(=O)C(C)(C)NC(=O)[C@@H](NC(=O)[C@@H](CC(C)C)NC(=O)[C@H](CCC(=O)O)NC(=O)[C@@H]2CCCN2C(=O)[C@H](Cc2c[nH]c3ccccc23)NC(=O)[C@H](Cc2c[nH]c3cc(Cl)ccc23)NC(=O)[C@H](CC(=O)O)NC(=O)CCC(=O)NCCCOCCOCCOCCCNC(=O)CN2CCN(CC(=O)O)CCN(CC(=O)O)CCN(CC(=O)O)CC2)CSCc2cccc(c2)CSCCNC1=O [GIP-141, DOTA-Ttds-Asp-6Clw-Trp-Pro-Glu-leu-[Cys(3MeBn)-Aib-Leu-Ile-AET]] ({X3-Suc}-D[Trp(6-Cl)]WPE[dL]C[Aib]LI; linker 7-C via X7) | 10 to 79.4 |
| CC[C@H](C)[C@@H]1NC(=O)[C@H](CC(C)C)NC(=O)C2(CCOCC2)NC(=O)[C@@H](NC(=O)[C@@H](CC(C)C)NC(=O)[C@H](CCC(=O)O)NC(=O)[C@@H]2C[C@@H](O)CN2C(=O)[C@H](Cc2c[nH]c3ccc(Cl)cc23)NC(=O)[C@H](Cc2c[nH]c3ccccc23)NC(=O)[C@H](CC(=O)O)NC(C)=O)CSCc2cc(cc(CN3CCN(C(=O)CN4CCN(CC(=O)O)CCN(CC(=O)O)CCN(CC(=O)O)CC4)CC3)c2)CSC[C@@H](C(N)=O)NC1=O [GIP-145, Ac-Asp-Trp-5Clw-Hyp-Glu-leu-[Cys(tMeBn(DOTA-PP))-Thp-Leu-Ile-Cys]-NH2] (Ac-DW[Trp(5-Cl)][Hyp]E[dL]C[Thp]LIC-NH2; linker 7-11 via X19) | 10 to 79.4 |
| CC[C@H](C)[C@@H]1NC(=O)[C@H](CC(C)C)NC(=O)C2(CCN(C(=O)CN3CCN(CC(=O)O)CCN4CCN(CC3)CC(=O)[O][Zn][O]C(=O)C4)CC2)NC(=O)[C@@H](NC(=O)[C@@H](CC(C)C)NC(=O)[C@H](CCC(=O)O)NC(=O)[C@@H]2C[C@@H](O)CN2C(=O)[C@H](Cc2c[nH]c3ccc(Cl)cc23)NC(=O)[C@H](Cc2c[nH]c3ccccc23)NC(=O)[C@H](CC(=O)O)NC(=O)CCCC(=O)NC[C@H](O)[C@@H](O)[C@H](O)[C@H](O)CO)CSCc2cccc(n2)CSCCNC1=O [GIP-147, AGLU-Glutar-Asp-Trp-5Clw-Hyp-Glu-leu-[Cys(2Lut)-Apc(ZnDOTA)-Leu-Ile-AET]] ({NH(1-deoxy-D-glucityl)-Glutaryl}-DW[Trp(5-Cl)][Hyp]E[dL]C[Api](X26)LI; linker 7-C via X6) | < 10 |
| CC[C@H](C)[C@@H]1NC(=O)[C@H](CC(C)C)NC(=O)C(C)(C)NC(=O)[C@@H](NC(=O)[C@@H](CC(C)C)NC(=O)[C@H](CCC(=O)O)NC(=O)[C@@H]2CCCN2C(=O)[C@H](Cc2c[nH]c3ccc(Cl)cc23)NC(=O)[C@H](Cc2c[nH]c3ccccc23)NC(=O)[C@H](CC(=O)O)NC(=O)CCC(=O)NCCCOCCOCCOCCCNC(=O)CN2CCN3CCN4CCN(CC2)CC(=O)[O][In]([O]C(=O)C3)[O]C(=O)C4)CSCc2cccc(c2)CSCCNC1=O [GIP-148, InDOTA-Ttds-Asp-Trp-5Clw-Pro-Glu-leu-[Cys(3MeBn)-Aib-Leu-Ile-AET]] ({X11-Suc}-DW[Trp(5-Cl)]PE[dL]C[Aib]LI; linker 7-C via X7) | < 10 |
| CC[C@H](C)[C@@H]1NC(=O)[C@H](CC(C)C)NC(=O)[C@](C)(CO)NC(=O)[C@@H](NC(=O)[C@@H](CC(C)C)NC(=O)[C@H](CCC(=O)O)NC(=O)[C@@H]2CCCN2C(=O)[C@H](Cc2c[nH]c3ccc(Cl)cc23)NC(=O)[C@H](Cc2c[nH]c3ccccc23)NC(=O)[C@H](CC(=O)O)NC(=O)CCC(=O)NCCCOCCOCCOCCCNC(=O)CN2CCN3CCN4CCN(CC2)CC(=O)[O][In]([O]C(=O)C3)[O]C(=O)C4)CSCc2cccc(c2)CSCCNC1=O [GIP-149, InDOTA-Ttds-Asp-Trp-5Clw-Pro-Glu-leu-[Cys(3MeBn)-Ams-Leu-Ile-AET]] ({X11-Suc}-DW[Trp(5-Cl)]PE[dL]C[αMeS]LI; linker 7-C via X7) | < 10 |
| CC[C@H](C)[C@@H]1NC(=O)[C@H](CC(C)C)NC(=O)C2(CCOCC2)NC(=O)[C@@H](NC(=O)[C@@H](CC(C)C)NC(=O)[C@H](CCC(=O)O)NC(=O)[C@@H]2CCCN2C(=O)[C@H](Cc2c[nH]c3ccc(Cl)cc23)NC(=O)[C@H](Cc2c[nH]c3ccccc23)NC(=O)[C@H](CC(=O)O)NC(=O)CCC(=O)NCCCOCCOCCOCCCNC(=O)CN2CCN3CCN4CCN(CC2)CC(=O)[O][In]([O]C(=O)C3)[O]C(=O)C4)CSCc2cccc(c2)CSCCNC1=O [GIP-150, InDOTA-Ttds-Asp-Trp-5Clw-Pro-Glu-leu-[Cys(3MeBn)-Thp-Leu-Ile-AET]] ({X11-Suc}-DW[Trp(5-Cl)]PE[dL]C[Thp]LI; linker 7-C via X7) | < 10 |
| CC[C@H](C)[C@@H]1NC(=O)[C@H](CC(C)C)NC(=O)C(C)(C)NC(=O)[C@@H](NC(=O)[C@@H](CC(C)C)NC(=O)[C@H](CCC(=O)O)NC(=O)CN(C)C(=O)[C@H](Cc2c[nH]c3ccc(Cl)cc23)NC(=O)[C@H](Cc2c[nH]c3ccccc23)NC(=O)[C@H](CC(=O)O)NC(=O)CCC(=O)NCCCOCCOCCOCCCNC(=O)CN2CCN3CCN4CCN(CC2)CC(=O)[O][In]([O]C(=O)C3)[O]C(=O)C4)CSCc2cccc(c2)CSCCNC1=O [GIP-152, InDOTA-Ttds-Asp-Trp-5Clw-Nmg-Glu-leu-[Cys(3MeBn)-Aib-Leu-Ile-AET]] ({X11-Suc}-DW[Trp(5-Cl)][Sar]E[dL]C[Aib]LI; linker 7-C via X7) | < 10 |
| CC[C@H](C)[C@@H]1NC(=O)[C@H](CC(C)C)NC(=O)C(C)(C)NC(=O)[C@@H](NC(=O)[C@@H](CC(C)C)NC(=O)[C@H](CCC(=O)O)NC(=O)[C@@H]2CCCN2C(=O)[C@H](Cc2c[nH]c3ccc(Cl)cc23)NC(=O)[C@H](Cc2c[nH]c3ccccc23)NC(=O)[C@H](CC(=O)O)NC(=O)CCC(=O)NCCCOCCOCCOCCCNC(=O)CN2CCN3CCN4CCN(CC2)CC(=O)[O][In]([O]C(=O)C3)[O]C(=O)C4)CSCc2cccc(n2)CSCCNC1=O [GIP-154, InDOTA-Ttds-Asp-Trp-5Clw-Pro-Glu-leu-[Cys(2Lut)-Aib-Leu-Ile-AET]] ({X11-Suc}-DW[Trp(5-Cl)]PE[dL]C[Aib]LI; linker 7-C via X6) | < 10 |
